Earlier results as cited in patent US7960102B2, “Regulated aptamer therapeutics” (Archemix Corp., priority 2002, dated 2011).

Target: N1 aptamer
Conditions: 10 nM labeled N1 aptamer, 1×SB, room temperature, three experiments; read-out: Kd of neomycin for aptamer (protection from T1 cleavage at G27)

In the case of neomycin, the Kd is listed as 940 ± 60 nM.
